Data: patent US12599562B2, “Nanocrystal microparticles of poorly soluble drugs and methods of production and use thereof” (The Board of Regents of the University of Oklahoma, priority 2017, dated 2026)
In brackets after ≈: the same amount, converted by molar mass.

How the values were obtained:
[1] = Apparent maximum solubility of SHetA2 NCs and SHetA2 NC-MPs in PBS containing 0.05% SDS; format: physicochemical; settings: aqueous with cosolvent or surfactant or cyclodextrin, thermodynamic from solid, at first 5 min, read-out: apparent maximum solubility (highest drug solubility)
Procedure: SHetA2 NCs, SHetA2 MPs, and SHetA2 NC-MPs in PBS containing 0.05% SDS.
Apparent Maximum Solubility of SHetA2 NCs and SHetA2 NC-MPs
The apparent maximum solubility profiles of SHetA2 NCs, SHetA2 NC-MPs, unprocessed SHetA2 (i.e., unprocessed drug), and spray dried SHetA2 MPs (i.e., microparticulate amorphous drug) are shown in FIG. 8. […] SHetA2 NC-MPs and spray dried SHetA2 MPs followed a similar dissolution profile after 45 min. […] After 6 h, SHetA2 NCs followed a similar dissolution profile with the other two formulations.

[2] = Dissolution profile (cumulative percentage of SHetA2 dissolved); format: physicochemical; settings: size range 2.82-4.46 μm; level reached (NCs and NC-MPs rising until 5 h)
From the text: Cumulative percentage dissolved SHetA2 from unprocessed SHetA2, SHetA2 NCs, SHetA2 MPs, and SHetA2 NC-MPs.
Dissolution Profile of SHetA2 NC-MPs, Unprocessed SHetA2, and Spray Dried SHetA2 MPs of Size Range 2.82-4.46 μm
The mean cumulative percentage of SHetA2 dissolved versus time data for SHetA2 NCs, SHetA2 NC-MPs, spray dried SHetA2 MPs, and unprocessed SHetA2 is shown in FIG. 9. MPs in sizes 2.82-4.46 μm were studied, because the particles in this size range are deposited in the alveolar region of the lungs. […] The concentration of SHetA2 increased at a constant rate for SHetA2 NCs and SHetA2 NC-MPs until 5 h. […] In the case of spray dried SHetA2 MPs, there was a prompt release within the first 15 min, then SHetA2 concentration increased slowly until leveling at a cumulative percentage of 21.19±4.40%. In contrast, the unprocessed SHetA2 dissolved only 3.51±0.9%.

**Q.** Which solubility at 5 min [1] does the source give for CC1(C)CC(C)(C)c2cc(NC(=S)Nc3ccc([N+](=O)[O-])cc3)ccc2S1 [unprocessed SHetA2] here?
**A.** 0.48 ± 0.11 µg/mL (≈ 1.2 µM)

**Q.** What about the “cumulative percentage of SHetA2 dissolved” value [2] of the same compound?
**A.** 3.51±0.9%
